Source: a melting point compilation (Tetko et al.; mined from patent text by program, amines drawn as free bases though some values may be those of a salt)

| Structure (SMILES) | melting point |
| --- | --- |
| CNc1nc(C)c(-c2ccnc(Nc3cccc(S(=O)(=O)NCCOC)c3)n2)s1 | 205 to 206 °C |
| c1ccc2c(c1)CCc1c(CN3CCN(c4cc5ccccc5cn4)CC3)n[nH]c1-2 | 228 to 230 °C |
| O=C(O)C1(CSc2ccc3oc(-c4ccncc4)cc3c2)CCOCC1 | 227 °C |
| Cc1ccc(Cl)cc1N1CCCN(CC(C)C)C1=S | 96 to 98 °C |
| CC(C)(C)OC(=O)N[C@H]1CC[C@@H](OS(C)(=O)=O)C1 | 88 to 89 °C |
| c1ccc(-c2cc(-c3c[nH]nc3-c3ccccn3)ccn2)cc1 | 148 °C |
| CC(=O)Nc1cc2c(cc1[N+](=O)[O-])OCOC2 | 158 to 159 °C |
| Cc1cc(C)n(-c2nc(Nc3ccc(C(F)(F)F)cc3)c3ccccc3n2)n1 | 219 to 220 °C |
| O=C(O)c1ccc(Nc2cc3c4c(c2)CCCC4CCC3)cc1 | 204 to 205 °C |
| CNCc1cccc(CN(C)c2nc(=O)c3c(C)c(OC)c(OC)cc3[nH]2)c1 | 179 to 181 °C |
| COc1c(NC2CCC3(CC2)OCC(C)(C)CO3)ccnc1C | 45 °C |
| CC(=O)NC[C@H]1CN(c2ccc(N3CCC4(CC3)COCO4)cc2)C(=O)O1 | 134 to 138 °C |
| CC(C)(C)NS(=O)(=O)c1cn(CCOC2CCCCO2)c2ccccc12 (stereo not given) | 125 to 132 °C |
| COc1cc(Nc2c(C#N)cnc3cc(-c4csc(C5OCCO5)c4)ccc23)c(Cl)cc1Cl | 234 to 236 °C |
| CCOC(=O)c1cnc2snc(C)c2c1NCS(=O)(=O)c1ccc(Oc2ccc(Cl)cc2)cc1 | 117 to 120 °C |
| Cc1cc(C)cc(OCC(O)CCN2CCN(c3ccccc3)CC2)c1 (stereo not given) | 88 to 90 °C |
| CC1(CN)CCN(c2c(F)cc3c(=O)c(C(=O)O)cn(C4CC4)c3c2Cl)C1 (stereo not given) | 189 to 191 °C |
| COc1ccc2nc(CN3CCN(c4ccc(Cl)cc4Cl)CC3)cn2c1 | 130 °C |
| COc1cc(Nc2nccc(-c3sc(NCCc4ccccc4)nc3C)n2)cc(OC)c1 | 201 to 202 °C |
| COc1ccc(OC)c(-c2c(C(C)C)cc(C(C)C)cc2C(C)C)c1I | 189 to 191 °C |
| O=C(c1cccs1)c1cnn2c(-c3ccc(Cl)nc3)ccnc12 | 145 to 148 °C |
| CC(C)(Cn1c(CO)nc2c(N)nc3cccnc3c21)NC(=O)C1CCCCC1 | 230 to 232 °C |
| N#Cc1c(N2CCCC2)cc(-c2ccccc2)c2c1-c1ccccc1C2 | 158 to 160 °C |
| CCCCC(C)(OC)C(O)C=CC1C(O)CC(=O)C1CCCCCCC(=O)OC (stereo not given) | 44 to 45 °C |

| Structure (SMILES) | melting point |
| --- | --- |
| O=C(OCC1CC1)c1ccc(OCCC2CCN(c3ccc(Cl)nn3)CC2)cc1 | 134 °C |
| Cc1cc(OCc2ccc(-c3ccc(F)c(C(F)(F)F)c3)nc2C)ccc1OC(C)(C)C(=O)O | 141 to 143 °C |
| COc1cc(C(=O)NCC2c3ccccc3CC(C)N2C(=O)c2ccccc2)cc(OC)c1OC (stereo not given) | 160 to 162 °C |
| O=C(Cn1cnc2ccccc21)Nc1ccc(-n2nc(C3CC3)cc2C2CC2)cc1 | 230 to 235 °C |
| O=C(Cc1cccc2ccccc12)N1CCC(c2nccc3occc23)CC1 | 50 °C |
| CCOc1cc(C=CC(C)=O)ccc1O | 98 to 100 °C |
| CCCCc1oc2ccccc2c1C(=O)NCc1ccc2c(-c3ccc(Cl)cc3)c(OC(Cc3ccccc3)C(=O)OC)ccc2c1 (stereo not given) | 59 to 62 °C |
| O=[N+]([O-])c1cc(Cn2ccnc2)ccc1NC1CCCCC1 | 121 °C |
| COc1ccccc1N1CCN(CCC2CN(C)C(=O)O2)CC1 (stereo not given) | 107 to 108 °C |
| Nc1ccc(CCc2ccc(Cl)c(Cl)c2)cc1 | 68 to 70 °C |
| O=Cc1cccc(OCCCN2C(=O)c3ccccc3C2=O)c1 | 102 to 104 °C |
| CS(=O)(=O)c1ccc(-c2cn[nH]c(=O)c2-c2ccc(F)cc2)cc1 | 255 to 256 °C |
| Cc1nc(NN)c2c(n1)NC(=O)CO2 | 262 to 264 °C |
| CCc1csc(-n2cc(C)cc2-c2ccc(S(N)(=O)=O)cc2)c1 | 139 to 141 °C |
| CC(=O)Nc1[nH]c(-c2ccc(O)cc2)nc1C | 277 to 279 °C |
| Cc1ccnc(NCCCCC(=O)O)c1 | 138 to 140 °C |
| c1ccc(Nc2ncnc3ncccc23)cc1 | 258 °C |
| CC(=O)OCC(=O)C1(OC(C)=O)C(C)CC2C3CC(C)C4=CC(=O)CCC4(C)C3(F)C(O)CC21C (stereo not given) | 194 to 195 °C |
| CC1(C)CCC(C)(C)c2cc(C(=O)c3ccccc3C=O)ccc21 | 145 °C |
| CCc1cc(Nc2ccc(Sc3ccncc3)cc2)nc(N)n1 | 181 to 186 °C |
| COC(=O)C(C)(C)Cc1ccc2cc(CC(C)(C)C(=O)OC)ccc2c1 | 108 to 110 °C |
| CCOC(=O)c1noc2ccccc12 | 53 to 55 °C |
| COc1cc(Cl)cc(Cn2c(=O)cc(C(F)(F)F)n(C)c2=O)c1Cl | 117 to 123 °C |
| COc1ccc2c(c1)C(C(=O)N(Cc1ccc(CO)cc1)c1ccc(C(C)C)cc1)CCC2 (stereo not given) | 143 °C |

| Structure (SMILES) | melting point |
| --- | --- |
| c1cncc(Cn2c(-c3ccc4c(c3)OCO4)nc3ccccc32)c1 | 152 to 153 °C |
| CCc1cc2c(ccc(=O)n2Cc2ccc(-c3ccccc3S(N)(=O)=O)cc2)c(CC)n1 | 199 to 200 °C |
| CC(C)(C)OC(=O)NC(=S)NC(=O)OC(C)(C)C | 124 to 127 °C |
| O=C(OCc1ccccc1)C(=C1NCCCS1)[N+](=O)[O-] | 78 to 79 °C |
| CS(=O)(=O)Nc1cc2c(cc1Oc1ccccc1)C(=O)CCO2 | 143 to 144 °C |
| CC(C)OCC(C)Oc1ccc(COc2cnn(C(C)(C)C)c(=O)c2Cl)cc1 (stereo not given) | 60 to 62 °C |
| CCOC(=O)C[C@H](O)C[C@H](O)/C=C/c1c(-c2ccc(F)cc2)nc(N(C)S(C)(=O)=O)nc1C(C)C | 92 to 94 °C |
| O=C1C2CCCC2Nc2ccccc2N1Cc1ccccc1 (stereo not given) | 172 to 173 °C |
| CCOC(=O)c1ncn(-c2nc(C)cs2)c1S | 193 to 195 °C |
| CCCCc1ccc(Nc2cc(C)nc3ccc(OC)cc23)cc1 | 200 to 201 °C |
| Cn1c(=O)[nH]c(N2CCc3ccccc3CC2)c(C#N)c1=O | > 200 °C |
| CCCSc1ccc(Oc2ccc(Cl)c(Cl)c2)nc1C#N | 67 to 69 °C |
| CNNc1ccc(-c2ccc3c(=O)c(C(=O)O)cn(C4CC4)c3c2C)cn1 | 246 °C |
| O=C(c1cc(C(F)(F)F)cc(C(F)(F)F)c1)N1CCC2(CC1)C(=O)NCN2c1ccccc1Cl | 157 to 159 °C |
| Cc1c2c3c(ccc2nn1C)CCC3=O | 157 to 159 °C |
| CCOC1Nc2c(O)cccc2C(=O)N2CCCC12 (stereo not given) | 153 to 155 °C |
| N=C(NO)c1ccc(-c2ccc(-c3nc4cc(C(=N)NO)ccc4[nH]3)cc2)c(OCc2ccccc2)c1 | 250 to 253 °C |
| Cn1c(C(F)(F)F)cc(=O)n(-c2ccc3snc(CS(=O)(=O)CC(=O)O)c3c2)c1=O | 215 °C |
| O=C(O)COc1cc(F)c(F)cc1C(=S)NCc1ccc(Br)cc1F | 206 to 209 °C |
| O=[N+]([O-])c1cnc2ccc(Cl)cc2c1Cl | 118 to 120 °C |
| CN(C)S(=O)(=O)c1ccc(-c2ccc(-c3ccc(S(=O)(=O)N(C)C)c(S)c3)cc2)cc1S | 194 °C |
| CCOC(=O)C1=C(C)NC2=C(C(=O)N(CCN(CC)CC)C2)C1c1ccccc1[N+](=O)[O-] (stereo not given) | 187 to 188 °C |
